The results in this text go back to ChEMBL document CHEMBL1914353, “Utilization of halogen bond in lead optimization: a case study of rational design of potent phosphodiesterase type 5 (PDE5) inhibitors” (J Med Chem, 2011).

The structures appear in SMILES notation.

This experiment can be described thus: Inhibition of rabbit platelet PDE5 using [3H]cGMP as substrate after 30 mins by scintillation proximity assay. Also on record: species or system Oryctolagus cuniculus. On the technique in general: Scintillation proximity formats need no separation of bound from free tracer.
One may read the IC50 as the midpoint of a concentration-inhibition curve. `CCCOc1ccc(S(=O)(=O)N2CCN(C)CC2)cc1-c1nc(CC)cc(=O)[nH]1`: the IC50 is 51.8 nM. This counts as double-digit nanomolar.

In the case of `CCCOc1ccc(S(=O)(=O)N2CCN(C)CC2)cc1-c1nc(CC)c(I)c(=O)[nH]1`, the IC50 was found to be 7.2 nM.

`CCCc1nn(C)c2c(=O)[nH]c(-c3cc(S(=O)(=O)N4CCN(C)CC4)ccc3OCC)nc12`: 3.3 nM corresponded to half-maximal inhibition (IC50).
